Assay results published in patent US20240376094A2, “SELECTIVE BCL-XL PROTAC COMPOUNDS AND METHODS OF USE” (Les Laboratoires Servier, priority 2021, published 2024).

Tests used:
Type in all cases: cell-based
NCI-H1650 = assay: CellTiter-Glo 3D proliferation assay, NCI-H1650 spheroids; conditions: Homo sapiens, NCI-H1650, 120 h, 5 days; for Emax: read-out: NCI-H1650 Span (Amax)
Procedure, shortened: (§1)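 Both lines grown in RPMI-1640 + 10% FBS. COR-L105 plated flat at 1,000 cells/well overnight; NCI-H1650 grown as spheroids, 3,000 cells/well, 72 h. Compounds at 0.508 nM-10 μM final for 5 days, 37° C. ATP read by CellTiter-Glo (3D version for spheroids); IC50 from variable-slope fit normalized to untreated cells.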

endogenous BCL-xL = biological target: T1, endogenous BCL-xL (Homo sapiens, UniProt Q07817); assay: Degradation of endogenous BCL-xL in COR-L105 (ProteinSimple Jess); conditions: COR-L105, 24 h, COR-L105, dose 300 nM, read-out: % BCL-xL vs. Untreated, COR-L105
T1 construct: endogenous in cells; host or cells: COR-L105 (ECACC No. 92031918); NCI-H1650 (ATCC No. CRL-5883)
T1 sequence (Q07817 whole entry): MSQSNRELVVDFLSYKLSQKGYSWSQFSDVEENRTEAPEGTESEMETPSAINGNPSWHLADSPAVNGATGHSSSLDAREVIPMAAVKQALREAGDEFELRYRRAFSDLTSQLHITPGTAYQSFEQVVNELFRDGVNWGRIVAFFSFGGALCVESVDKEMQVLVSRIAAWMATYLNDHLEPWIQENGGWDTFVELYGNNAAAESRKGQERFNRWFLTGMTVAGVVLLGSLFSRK
Experimental: The BCL-xL degrader low molecular weight compounds were tested against two endogenous cancer cell lines: • COR-L105: ECACC No. 92031918 cultured in RPMI-1640+10% FBS • NCI-H1650: (ATCC No. CRL-5883 cultured in RPMI-1640+10% FBS
The ability of the BCL-xL degrader low molecular weight compounds to degrade endogenous BCL-xL was assessed using the ProteinSimple 2-40 kDa Jess Separation Module.
Cell lines were cultured in media that is optimal for their growth at 5% CO2, 37° C. in a tissue culture incubator. Prior to seeding for the degradation assay, the cells were split at least 2 days before the assay to ensure optimal growth density. On the day of seeding, adherent cells were lifted off tissue culture flasks using 0.25% trypsin. Cell viability and cell density were determined using a cell counter (Vi-Cell XR Cell Viability Analyzer, Beckman Coulter). Cells with higher than 85% viability were seeded for the assay.
The COR-L105 and the NCI-H1650 cell line were seeded in 6-well clear TC-treated multiple well plates (Costar® cat. #3516). Cells were seeded at a density of 2,000,000 cells per well in 2.5 mL of standard growth media. Plates were incubated at 5% CO2, 37° C. overnight in a tissue culture incubator. On the day of dosing, BCL-xL degrader low molecular weight compounds and a BCL-xL inhibitor control were prepared at 6× in standard growth media. The prepared drug treatments were then added to the cells resulting in a final concentration of 100-300 nM and a final volume of 3.0 mL per well. A control well of untreated cells was also included in the study. Each drug concentration was tested in singlet. Plates were incubated at 5% CO2, 37° C. for 24 hours in a tissue culture incubator.
After 24 hours, the adherent cells were lifted off tissue culture plates using 0.25% trypsin. Standard growth media was added to quench the trypsin and centrifuged for 5 minutes at 1500 rpm. Cell pellets were washed once with cold PBS and centrifuged for 5 minutes at 1500 rpm. Cells were then washed with 1 mL cold PBS and transferred to a 1.5 mL eppendorf tube. Cells were centrifuged for 10 minutes at ≥10,000 g at 4° C. in a benchtop mini-centrifuge. The entire supernatant was discarded and cells were resuspended thoroughly in 50 μL of RIPA lysis buffer, generated by the manufacturer's protocol (ProteinSimple, Cat. #CBS401: Lysis Kit—RIPA Buffer for Charge Assays). Lysates were incubated on ice for 30 minutes. Following incubation, lysates were spun in a benchtop mini-centrifuge for 15 minutes at full speed at 4° C. Supernatant was carefully transferred to a new eppendorf tube for downstream analysis.
Protein was quantified using a Pierce™ BCA Protein Assay Kit (ThermoFisher, cat #23225) following the manufacturer's instructions. A standard curve was prepared by adding 25 μL of each concentration of reference samples from a Pierce™ Bovine Serum Albumin Standard Pre-Diluted Set (ThermoFisher, cat #23208). Each reference sample was run in duplicate. Testing samples were prepared by diluting cell lysates 1:5 in UltraPure™ DNase/RNase-Free Distilled Water and tested in duplicates of 25 μL each. The BCA working reagent was prepared by addition of 50 parts of BCA Reagent A with 1 part of BCA Reagent B. For each testing well, 200 μL of BCA working reagent was added. The plate was incubated at 37° C. for 30 minutes. A SpectraMax M Series Multi-Mode Microplate Reader was used to measure the absorbance at 562 nm. A standard curve generated by the Pierce™ Bovine Serum Albumin Standard Pre-Diluted Set was used to normalize and calculate the BCA concentration of cell lysates. Only values that fell within the range of the standard curve were accepted for quantification.
The ProteinSimple 2-40 kDa Jess Separation Module was used to detect BCL-xL degradation in treated versus untreated lysates following the manufacturer's instructions (25-Capillary Cartridge, 8 pack, 2-40 kDa, cat #SM W012). […]

COR-L105 = assay: CellTiter-Glo proliferation assay, COR-L105; conditions: Homo sapiens, COR-L105, 120 h, COR-L105, 5 days; for Emax: read-out: COR-L105 Span (max)
Procedure, shortened: as §1

| SMILES | IC50 (NCI-H1650) | remaining activity at 0.3 µM (endogenous BCL-xL) | Emax (NCI-H1650) | IC50 (COR-L105) | Emax (COR-L105) |
| --- | --- | --- | --- | --- | --- |
| Cc1ncsc1-c1ccc([C@H](C)NC(=O)[C@@H]2C[C@@H](O)CN2C(=O)[C@@H](NC(=O)CSCC(=O)N2CCN(CC#Cc3ccc(OCCCc4sc(N5CCCc6c5nnc(Nc5nc7ccccc7s5)c6C)nc4C(=O)O)c(F)c3)CC2)C(C)(C)C)cc1 [Example 37, 2-(3-(benzo[d]thiazol-2-ylamino)-4-methyl-6,7-dihydropyrido [2,3-c]pyridazin-8(5H)-yl)-5-(3-(2-fluoro-4-(3-(4-(2-((2-(((S)-1-((2S,4R)-4-hydroxy-2-(((S)-1-(4-(4-methylthiazol-5-yl)phenyl)ethyl)carbamoyl)pyrrolidin-1-yl)-3,3-dimethyl-1-oxobutan-2-yl)amino)-2-oxoethyl)thio)acetyl)piperazin-1-yl)prop-1-yn-1-yl)phenoxy)propyl)thiazole-4-carboxylic acid] | 39.7 nM | 82.4% | 107% | 623 nM | 88.5% |
| Cc1ncsc1-c1ccc([C@H](C)NC(=O)[C@@H]2C[C@@H](O)CN2C(=O)[C@@H](NC(=O)CCCCCCCC(=O)N2CCN(CC#Cc3ccc(OCCCc4sc(N5CCCc6c5nnc(Nc5nc7ccccc7s5)c6C)nc4C(=O)O)c(F)c3)CC2)C(C)(C)C)cc1 [Example 38, 2-(3-(benzo[d]thiazol-2-ylamino)-4-methyl-6,7-dihydropyrido [2,3-c]pyridazin-8(5H)-yl)-5-(3-(2-fluoro-4-(3-(4-(9-(((S)-1-((2S,4R)-4-hydroxy-2-(((S)-1-(4-(4-methylthiazol-5-yl)phenyl)ethyl)carbamoyl)pyrrolidin-1-yl)-3,3-dimethyl-1-oxobutan-2-yl)amino)-9-oxononanoyl)piperazin-1-yl)prop-1-yn-1-yl)phenoxy)propyl)thiazole-4-carboxylic acid] | 8.15 nM | 22.1% | 87.9% | 83.1 nM | 87.4% |
| Cc1ncsc1-c1ccc([C@H](C)NC(=O)[C@@H]2C[C@@H](O)CN2C(=O)[C@@H](NC(=O)CC2(CC(=O)N3CCN(CC#Cc4ccc(OCCCc5sc(N6CCCc7c6nnc(Nc6nc8ccccc8s6)c7C)nc5C(=O)O)c(F)c4)CC3)CCCC2)C(C)(C)C)cc1 [Example 39, 2-(3-(benzo[d]thiazol-2-ylamino)-4-methyl-6,7-dihydropyrido [2,3-c]pyridazin-8(5H)-yl)-5-(3-(2-fluoro-4-(3-(4-(2-(1-(2-(((S)-1-((2S,4R)-4-hydroxy-2-(((S)-1-(4-(4-methylthiazol-5-yl)phenyl)ethyl)carbamoyl)pyrrolidin-1-yl)-3,3-dimethyl-1-oxobutan-2-yl)amino)-2-oxoethyl)cyclopentyl)acetyl)piperazin-1-yl)prop-1-yn-1-yl)phenoxy)propyl) thiazole-4-carboxylic acid] | 38.4 nM | 63.6% | 96.4% | 524 nM | 95.3% |
| Cc1ncsc1-c1ccc(CNC(=O)[C@@H]2C[C@@H](O)CN2C(=O)[C@@H](NC(=O)COCCOCCOCC(=O)N2CCN(CC#Cc3ccc(OCCCc4sc(N5CCCc6c5nnc(Nc5nc7ccccc7s5)c6C)nc4C(=O)O)c(F)c3)CC2)C(C)(C)C)cc1 [Example 40, 2-(3-(benzo[d]thiazol-2-ylamino)-4-methyl-6,7-dihydropyrido [2,3-c]pyridazin-8(5H)-yl)-5-(3-(2-fluoro-4-(3-(4-((S)-13-((2S,4R)-4-hydroxy-2-((4-(4-methylthiazol-5-yl)benzyl)carbamoyl)pyrrolidine-1-carbonyl)-14,14-dimethyl-11-oxo-3,6,9-trioxa-12-azapentadecanoyl)piperazin-1-yl)prop-1-yn-1-yl)phenoxy)propyl)thiazole-4-carboxylic acid] | 15.6 nM | 71.4% | 87.3% | 107 nM | 82.1% |
| Cc1ncsc1-c1ccc(CNC(=O)[C@@H]2C[C@@H](O)CN2C(=O)[C@@H](NC(=O)C2(F)CC2)C(C)(C)C)c(OCC(=O)NCCCCC(=O)N2CCN(CC#Cc3ccc(OCCCc4sc(N5CCCc6c5nnc(Nc5nc7ccccc7s5)c6C)nc4C(=O)O)c(F)c3)CC2)c1 [Example 44, 2-(3-(benzo[d]thiazol-2-ylamino)-4-methyl-6,7-dihydropyrido [2,3-c]pyridazin-8(5H)-yl)-5-(3-(2-fluoro-4-(3-(4-(5-(2-(2-(((2S,4R)-1-((S)-2-(1-fluorocyclopropane-1-carboxamido)-3,3-dimethylbutanoyl)-4-hydroxypyrrolidine-2-carboxamido)methyl)-5-(4-methylthiazol-5-yl)phenoxy)acetamido)pentanoyl)piperazin-1-yl)prop-1-yn-1-yl)phenoxy)propyl)thiazole-4-carboxylic acid] |  | 58.3% |  |  |  |

Continued by falling IC50 (NCI-H1650), values first:

| IC50 (NCI-H1650) | remaining activity at 0.3 µM (endogenous BCL-xL) | SMILES | Emax (NCI-H1650) | IC50 (COR-L105) | Emax (COR-L105) |
| --- | --- | --- | --- | --- | --- |
| 37.3 nM | > 90% | Cc1ncsc1-c1ccc([C@H](C)NC(=O)[C@@H]2C[C@@H](O)CN2C(=O)[C@@H](NC(=O)CN(C)CC(=O)N2CCN(CC#Cc3ccc(OCCCc4sc(N5CCCc6c5nnc(Nc5nc7ccccc7s5)c6C)nc4C(=O)O)c(F)c3)CC2)C(C)(C)C)cc1 [Example 36, 2-(3-(benzo[d]thiazol-2-ylamino)-4-methyl-6,7-dihydropyrido [2,3-c]pyridazin-8(5H)-yl)-5-(3-(2-fluoro-4-(3-(4-(N-(2-(((S)-1-((2S,4R)-4-hydroxy-2-(((S)-1-(4-(4-methylthiazol-5-yl)phenyl)ethyl)carbamoyl)pyrrolidin-1-yl)-3,3-dimethyl-1-oxobutan-2-yl)amino)-2-oxoethyl)-N-methylglycyl)piperazin-1-yl)prop-1-yn-1-yl)phenoxy)propyl) thiazole-4-carboxylic acid] | 68.3% | 296 nM | 94.1% |
| 7.67 nM | 74.5% | Cc1ncsc1-c1ccc([C@H](C)NC(=O)[C@@H]2C[C@@H](O)CN2C(=O)[C@@H](NC(=O)CCCCCC(=O)N2CCN(CC#Cc3ccc(OCCCc4sc(N5CCCc6c5nnc(Nc5nc7ccccc7s5)c6C)nc4C(=O)O)c(F)c3)CC2)C(C)(C)C)cc1 [Example 34, 2-(3-(benzo[d]thiazol-2-ylamino)-4-methyl-6,7-dihydropyrido [2,3-c]pyridazin-8(5H)-yl)-5-(3-(2-fluoro-4-(3-(4-(7-(((S)-1-((2S,4R)-4-hydroxy-2-(((S)-1-(4-(4-methylthiazol-5-yl)phenyl)ethyl)carbamoyl)pyrrolidin-1-yl)-3,3-dimethyl-1-oxobutan-2-yl)amino)-7-oxoheptanoyl)piperazin-1-yl)prop-1-yn-1-yl)phenoxy)propyl)thiazole-4-carboxylic acid] | 55.4% | 74.2 nM | 82.7% |
